# Measurements from a melting point compilation (Tetko et al.; mined from patent text by program, amines drawn as free bases though some values may be those of a salt).
row,SMILES,melting point
1,CC(C(=O)O)c1c(-c2ccccc2)nn(-c2ccccc2)c1-c1ccccc1 (centres undefined),95 to 99 °C
2,CCCS(=O)(=O)c1cc(C(C)C)c(C#N)cc1C(C)C,113 to 115 °C
3,CCc1nc2c(cnn2CC)c(NC2CCOCC2)c1CNC(=O)c1cccc(C(=O)NCc2ccc(Cl)c(-c3cccc(CN4CCCN(C)CC4)c3)c2)c1,105 to 107 °C
4,O=C(O)c1ccc2nc(-c3ccc(F)cc3)[nH]c(=O)c2c1,397 to 399 °C
5,O=c1[nH]c(=Cc2ccc3ccccc3n2)c(=O)[nH]c1=Cc1ccc(F)cc1,319 to 320 °C
6,C=C1C[C@@H]2[C@H](CC[C@]3(C)C(=O)CC[C@@H]23)[C@@]2(C)CCC(=O)C(S)=C12,195 to 197 °C
7,CCOC(=O)Cc1cccc(N)c1,135 °C
8,COc1ccc(-c2csc(Nc3cccc4ccccc34)n2)cc1OC,244 to 246 °C
9,Cc1cnc(C(=O)c2[nH]c3cc(Cl)ccc3c2CC(=O)O)s1,225 to 226 °C
10,COC(=O)[C@H](O[Si](C)(C)C)[C@@H](O[Si](C)(C)C)C(=O)OC,75 °C
11,Clc1ccc(CCC(Cn2ccnc2)OCc2ccc(Cl)c(Cl)c2)cc1 (centres undefined),87.5 to 89.5 °C
12,COCc1cc(C2=NOC(c3cc(Cl)cc(Cl)c3)(C(F)(F)F)C2)ccc1C(=O)NC(=N)OC (centres undefined),132 to 134 °C
13,Cc1ccc2c(c1)OC1(O)c3ccccc3C(=O)C21O (centres undefined),145 to 147 °C
14,Cn1ncnc1-c1ccc(C(=O)C(=O)N2Cc3cccn3Cc3ccccc32)c(Cl)c1,141 to 143 °C
15,COc1ccc(Nc2ccc(Nc3ncnc4cc(-c5ccccc5)sc34)cc2)cc1OC,160 to 161 °C
16,COc1cc(Nc2c(C#N)cnc3c2sc2ccccc23)c(Cl)cc1Cl,234 to 236 °C
17,O=C1CNc2ncc(I)cc2N1Cc1cc(Cl)ccc1Cl,> 200 °C

row,SMILES,melting point
1,COc1cc(N2CCCN(C3CCN(CCO)CC3)CC2)ccc1Nc1ncc2ccc(-c3ccccc3OC)n2n1,77 to 94 °C
2,COc1ccc(-c2ccc(-c3ccc(C(F)(F)F)cc3)nc2-c2ccc(OC)cc2)cc1,144 to 147 °C
3,CC(=O)c1c(Cl)n(C)c2ccccc12,180 °C
4,O=C(c1ccc(F)cc1)c1ccc(OC(F)(F)F)cc1,42 to 43 °C
5,CS(=O)(=O)c1ccc(C(O)C(CF)NC(=O)C(F)F)cc1 (centres undefined),141 to 142 °C
6,COC(=O)C1(C(=O)OC)CN(C(=O)OC(C)(C)C)c2cc([N+](=O)[O-])c3ccccc3c21,151 °C
7,COC(=O)c1cccc(/C=C/c2ccccc2)c1,108 to 109 °C
8,N#Cc1cnc2ccsc2c1NCc1ccc(Cl)cc1Cl,215 to 216 °C
9,CC1CC(=O)c2cc([N+](=O)[O-])cnc2C1 (centres undefined),64 to 67 °C
10,COC(=O)c1cc(OCCCN2CCN(c3cccc4sccc34)CC2)n(C)n1,109 to 110 °C
11,N#CC1(Nc2ccccc2)CCN([C@H]2CCc3ccccc32)CC1,157 to 160 °C
12,COC(=O)c1ccc(-c2nnc(CSCCCCOc3ccccc3)o2)cc1,98 to 105 °C
13,CCCn1cnc2c1c1nnc(-c3ccccc3)n1c(=O)n2CCC,215 to 217 °C
14,CC(C)(CCc1ccc(NC=NO)cc1)CN1CCCC1,120 to 122 °C
15,O=C(O)C1CC2CC(CP(=O)(O)O)CCC2CN1 (centres undefined),208 to 211 °C
16,Cc1c2c(nc3ccccc13)C(=Cc1ccc(Cl)c(Cl)c1)CC2,187 to 188 °C
17,COc1cnc(CO)c(C)c1OC,91 to 92 °C

# Now from value to compound:
row,melting point,SMILES
1,135 to 136 °C,CC(C)(C)C(=O)C=C(c1ccc(Cl)cc1)S(=O)(=O)c1ccccc1
2,146 to 151 °C,CCC(C)(C)c1ccc(OC(C)=O)c(C2(OC(C)=O)C(=O)c3ccccc3C2=O)c1
3,54 to 57 °C,COC(=O)[C@H](CCSC)NC(=O)c1ccc(/C=C(/Cn2ccnc2)c2ccc(F)cc2)cc1
4,239 to 240 °C,NC(=O)CC1CN=C(c2cc3cc(OC(F)(F)F)cc(NS(=O)(=O)c4cccs4)c3[nH]2)S1 (centres undefined)
5,126 to 129 °C,CC(C)(C)c1ccc2c(Cl)c3ccccc3c(C=O)c2c1
6,145 to 147 °C,CCCn1nc2c(Cl)nc3ccccc3c2c1C
7,249 to 250 °C,CCc1nc2c(NC(=O)c3ccccc3)nc3ccccc3c2n1CCCCNS(C)(=O)=O
8,108 to 110 °C,O=[N+]([O-])c1sccc1-c1ccc(Cl)cc1
9,80 to 82 °C,CC(C)(C)OC(=O)CC[C@H](NC(=O)c1ccc(NCc2ccccc2)c(F)c1)C(=O)OC(C)(C)C
10,188 to 191 °C,CCc1c(C)sc2nc(C(C)C)c(CO)c(-c3ccc(F)cc3)c12
11,100 to 101 °C,COc1ccc(C(=O)OC2C(OC)C=C(C)C(=O)CC2(C)C)cc1 (centres undefined)
12,165 to 167 °C,O=S1(=O)N=C(OCc2snc(Cl)c2Cl)c2ccccc21
13,202 °C,Cc1cn2c(nc1=O)CCCCC2
14,127 to 130 °C,O=C(NCC1Cc2c(Cl)cc3c(c2O1)CCC3)OCc1ccccc1 (centres undefined)
15,114 to 117 °C,CC(C)(C)OC(=O)N1c2ccccc2CC1c1ccccc1N (centres undefined)
